These are literature values, as cited in paper PMC13612640 (Cancer Chemotherapy and Pharmacology, 2026).

On the set-up of the series: method as in PMID 41165508.

Consider `COc1ccc(F)cc1C(=O)NCc1ccc(-c2nn([C@@H](C)C(F)(F)F)c(N)c2C(N)=O)cc1` [pirtobrutinib], for which the “Plasma fraction unbound (fu)” value is listed as 0.046.
